Source: patent publication US11510888B2, “Alleviating oxidative stress disorders with PUFA derivatives” (Retrotope, Inc., priority 2009, dated 2022)

Columns and labels:
[1] = tested on: coq null mutants (Q-less yeast); details: for protection in the yeast model: compared with D4-linolenic acid
Experimental: FIG. 3. […] Yeast coq3, coq7 and coq9 null mutants were prepared in the W303 yeast genetic background (WT). Yeast strains were grown in YPD medium (1% Bacto-yeast extract, 2% Bacto-peptone, 2% dextrose) and harvested while in log phase growth (OD600nm=0.1-1.0). Cells were washed twice with sterile water and resuspended in phosphate buffer (0.10 M sodium phosphate, pH 6.2, 0.2% dextrose) to an OD600nm=0.2. Samples were removed and 1:5 serial dilutions starting at 0.20 OD/ml were plated on YPD plate medium, to provide a zero time untreated control (shown in top left panel). The designated fatty acids were added to 200 uM final concentration to 20 ml of yeast in phosphate buffer. At 2 h, 4 h, and 16 h samples were removed, 1:5 serial dilutions prepared, and spotted onto YPD plate medium. Pictures were taken after 2 days of growth at 30° C.
FIG. 4. […] The fatty acid sensitive assay was performed as described in FIG. 6-1, except that 100 ul aliquots were removed at 1, 2, and 4 h and, following dilution, spread onto YPD plates. Pictures were taken after 2 to 2.5 days, and the number of colonies counted. Yeast strains include Wild type (circles), atp2 (triangles), or coq3 (squares); Fatty acid treatments include oleic C18:1 (solid line), linolenic, C18:3, n-3 (dashed line) or 11,11,14,14-D4-linolenic, C18:3, n-3, (dotted line).
Q-less yeast (coq mutants) provide an ideal system to assess in vivo autoxidation of fatty acids. Coenzyme Q (ubiquinone or Q) serves as a small lipophilic antioxidant as well as an electron shuttle in the respiratory chain of the mitochondrial inner membrane. Ten S. cerevisiae genes (COQ1-COQ10) are required for coenzyme Q biosynthesis and function, and the deletion of any results in respiratory deficiency (Tran U C, Clarke C F. Mitochondrion 2007; 75,S62).
A plate dilution assay can be used to assess PUFA sensitivity. This assay can be performed by spotting serial five-fold dilutions of aliquots onto YPD plate media (FIG. 3). The sensitivity of the different strains can be observed by visual inspection of the density of cells in each spot.

WT (W303) yeast = details: 200 μM, 4 h incubation
Experimental: Uptake of exogenously supplied fatty acids by yeast. WT (W303) yeast were harvested at log phase and incubated in the presence of 200 μM of the designated fatty acid for either 0 or 4 h.
Chromatograms of the yeast extracts subjected to GC-MS analyses. The different traces represent the 0 and 4 h incubations, respectively. The peak area of Each FAME (C18:1, C18:3 and D4-linolenic) was divided by the peak area of the C17:0 standard, quantified with a calibration curve.
Wild-type yeast were harvested during log phase growth and incubated in the presence of exogenously added fatty acid (for 0 or 4 h) in the presence of phosphate buffer plus 0.20% dextrose, as described for the fatty acid sensitivity assay. Cells were harvested, washed twice with 10 ml sterile water, and the yeast cell pellets were then processed by alkaline methanolysis as described above. The fatty acids are detected as methylesters (FAMEs) following GC-MS with C17:0 added as an internal standard (FIG. 6). The amounts of 18:3 and D4 detected after 4 h incubation were extrapolated from the calibration curve.

[2] = mouse, in vivo; cited from earlier work
[3] = tested on: coq null mutants (Q-less yeast); details: cited from earlier work; for sensitivity of Q-less yeast to fatty acid treatment: compared with wild-type parental strain
[4] = tested on: wild-type (strain W303-1B) cells; details: four hour treatment; cited from earlier work

For `[2H]C([2H])(/C=C\C/C=C\CC)C/C=C\CCCCCCC(=O)O` [11, 11-D2-linolenic acid, 11,11-Dideutero-cis,cis,cis-octadeca-8,12,15-trienoic acid], the “protection in the yeast model” value [1] was “comparable protection”.
In the case of `[2H]C([2H])(/C=C\CC)/C=C\CC/C=C\CCCCCCC(=O)O` [14, 14-D2-linolenic acid, 14,14-Dideutero-cis,cis,cis-octadeca-8,12,15-trienoic acid], the “protection in the yeast model” value [1] is reported as “comparable protection”.
In the case of `[2H]C([2H])(/C=C\CC)/C=C\C([2H])([2H])/C=C\CCCCCCCC(=O)O` [D4-linolenic acid, 11,11,14,14-Tetradeutero-cis,cis,cis-9,12,15-Octadecatrienoic acid], the “viability of cells compared with oleic acid treatment” value ([1]; quantitative colony counting) is reported as “similar” and the “incorporation of exogenously added fatty acid by yeast” value (WT (W303) yeast) is reported as “avidly incorporate”.
In the case of `CCCCC/C=C\C/C=C\CCCCCCCC(=O)O` [LA, (9Z,12Z)-9,12-Octadecadienoic acid], the “time at which higher-order PUFA concentration peaks in brain” value [2] is listed as ≤ 8 h.
For `CCCCC/C=C\C/C=C\C/C=C\C/C=C\CCCC(=O)O` [arachidonic acid], the “sensitivity of Q-less yeast to fatty acid treatment” value [3] is given as “hypersensitive”.
With `CC/C=C\C/C=C\C/C=C\CCCCCCCC(=O)O` [linolenic acid, (9Z,12Z,15Z)-9,12,15-Octadecatrienoic acid] the “viability / cell killing of coq mutants” value ([1]; 200 uM fatty acid, plate dilution assay) was “dramatic loss of viability”, the “reduction of viability of the coq mutants” value ([1]; quantitative colony counting, treatment for 4 h) was “more than 100 fold” and the “incorporation of exogenously added fatty acid by yeast” value (WT (W303) yeast) was “avidly incorporate”. The “viable Q-less (coq2, coq3, and coq5) yeast mutants” value ([3]; following a four hour treatment) was “Less than 1%”, the “wild-type cells remaining viable” value [4] was 70% and the “time at which higher-order PUFA concentration peaks in brain” value [2] was ≤ 8 h.
For `CCCCCCCC/C=C\CCCCCCCC(=O)O` [oleic acid], the “sensitivity of Q-less yeast to fatty acid treatment” value [3] is listed as “behave the same as the wild-type parental strain”.
